Measured values taken from paper PMC11678869, “Functional Role of Odorant-Binding Proteins in Response to Sex Pheromone Component Z8-14:Ac in Grapholita molesta (Busck)” (Insects, 2024).

Assays:
GmolPBP2 mutant I113A = GmolPBP2 mutant I113A (Grapholita molesta, UniProt A0A059VC28, I138A); assay: Fluorescence competitive binding assay, GmolPBP2 mutant
Protocol: (§1) The binding affinities of three rGmolPBPs and two rGmolGOBPs for Z8-14:Ac were determined using an F-2700 fluorescence spectrophotometer (Hitachi, Tokyo, Japan). First, we measured the dissociation constants (Kd) of the rGmolPBPs (or rGmolGOBPs) binding to 1−NPN. Each protein was diluted to 2 μM with 20 mM Tris-HCl buffer (pH 7.4); then, 2 mL of the protein solution was transferred to a quartz cuvette and titrated with 1 mM 1−NPN to a final concentration of 1–18 μM. As the doses of 1−NPN were increased, the increasing amplitude of the fluorescence intensity decreased, and finally, the binding of the protein to 1−NPN reached saturation. The Kd values were calculated using the nonlinear regression method and the Scatchard equation. Second, we measured the inhibitory constant (Ki) of Z8-14:Ac’s competitive binding with each rGmolPBP (or rGmolGOBP) from the protein/1−NPN complex. The initial fluorescence intensity values were measured after a 2 min reaction in 2 mL solution of 20 mM Tris-HCl (pH 7.4) containing 2 µM rGmolPBP (or rGmolGOBP) protein and 2 µM 1−NPN. Then, the solution was titrated with aliquots of 1 mM Z8-14:Ac to obtain final concentrations in the range of 1–14 µM, and the fluorescence intensity value of each reaction was recorded. The Ki values were calculated using the following equation: Ki = [IC50]/(1 + [1 − NPN]/Kd) where IC50 is the concentration of Z8-14:Ac when half of the initial fluorescence intensity value of the rGmolPBP (or GmolGOBP)/1−NPN complex is replaced, [1 − NPN] represents the concentration of free 1−NPN, and Kd is the dissociation constant of the rGmolPBP (or GmolGOBP)/1−NPN complex.
(§2) Five amino acids—Phe12, Leu68, Ile94, Arg109, and Ile113—were identified as having lower binding free energies for GmolPBP2 interaction with Z8-14:Ac. To assess their role in binding, these residues were individually mutated to alanine using site-directed mutagenesis. Primers for mutagenesis were designed following the protocols recommended by the Fast Mutagenesis System (TransGen Biotech, Beijing, China) (Table S1). These mutations were introduced into the pET-28a(+)–GmolPBP2 plasmid using a Fast Mutagenesis System kit ([…]) and site-directed mutagenesis primers generating the mutants F12A, L68A, I94A, R109A, and I113A, respectively. Each plasmid was verified by DNA sequencing to confirm the presence of the desired mutation. Expression and purification of the mutated proteins followed the same protocols used for the wild-type GmolPBP2. The binding affinities of the five mutants for Z8-14:Ac were determined via fluorescence competitive binding assays. An increase in Ki values for the mutants relative to the wild-type GmolPBP2 would indicate that the corresponding amino acid residues may be crucial for binding to Z8-14:Ac.

GmolPBP2 mutant R109A = GmolPBP2 mutant R109A (Grapholita molesta, UniProt A0A059VC28, R134A); assay: as above
Protocol: as §1, §2

GmolPBP2 mutant L68A = GmolPBP2 mutant L68A (Grapholita molesta, UniProt A0A059VC28, L93A); assay: as above
Protocol: as §1, §2

PFM males [1] = assay: Field trapping with delta traps, peach orchard; format: in vivo, Grapholita funebrana
Protocol: (§3) To determine the inhibitory effects on OFM male adults and the impact on the trapping effects of PFM male adults, varying amounts of Z8-14:Ac (0, 5, 10, 25, 50, 75, 100, 125, 150 μg) or Z10-14:Ac (0, 25, 50, 100, 150, 250, 350, 450, and 550 μg) were added to rubber septa loaded with a constant dosage of the main pheromone (500 μg of Z8-12:Ac and 20 μg of E8-12:Ac) of the PFM. Trapping experiments of Z8-14:Ac were carried out in peach and pear orchards in Yan’an and Xinjiang (China), respectively. Trapping tests of Z10-14:Ac were performed in pear orchards in Xinjiang (China). Each orchard had nine plots, with three plots in one field. Each plot consisted of a linear arrangement of traps loaded with a constant dosage of the main pheromones and different percentages of the secondary pheromone Z8-14:Ac or Z10-14:Ac of the PFM. Plots in the same field were placed 30 m apart, and fields were ≥1 km apart. The traps were hung 1.4 m from the ground on a suspension bracket between two rows of peach or pear trees from 10 June to 25 July 2021 in Xinjiang and from 15 June to 30 July 2021 in Yan’an. The positions of the traps within the plot were randomly arranged. Every 5 days, counts were taken, and the traps were rotated to the adjacent position to avoid any potential position effects. The septa loaded with sex pheromone components were replaced with new ones after every 15 days of suspension. The data were analyzed using a one-way ANOVA, and the differences in the average trapping of OFM and PFM males using sex attractants containing different amounts of Z8-14:Ac or Z10-14:Ac were further analyzed using Tukey’s HSD test, both of which were performed using SPSS 23.0.

PFM males [2] = assay: Field trapping with delta traps, pear orchard; format: in vivo, Grapholita funebrana
Protocol: as §3

OFM males = assay: Field trapping with delta traps, pear orchard; format: in vivo, Grapholita molesta; details: for Inhibition Rate of OFM Males: vs 100:4:0
Protocol: as §3

[3] = Z8-12:Ac/E8-12:Ac/Z8-14:Ac 500/20/5 μg (100:4:1)
[4] = Z8-12:Ac/E8-12:Ac/Z8-14:Ac 500/20/10 μg (100:4:2)
[5] = Z8-12:Ac/E8-12:Ac/Z8-14:Ac 500/20/25 μg (100:4:5)
[6] = Z8-12:Ac/E8-12:Ac/Z8-14:Ac 500/20/50 μg (100:4:10)
[7] = Z8-12:Ac/E8-12:Ac/Z8-14:Ac 500/20/75 μg (100:4:15)
[8] = Z8-12:Ac/E8-12:Ac/Z8-14:Ac 500/20/100 μg (100:4:20)
[9] = Z8-12:Ac/E8-12:Ac/Z8-14:Ac 500/20/125 μg (100:4:25)
[10] = Z8-12:Ac/E8-12:Ac/Z8-14:Ac 500/20/150 μg (100:4:30)
[11] = adding 1–30% of Z8-14:Ac to the PFM sex attractants
[12] = pear orchard, Z8-12:Ac/E8-12:Ac/Z8-14:Ac 500/20/5 μg (100:4:1)
[13] = pear orchard, Z8-12:Ac/E8-12:Ac/Z8-14:Ac 500/20/10 μg (100:4:2)
[14] = pear orchard, Z8-12:Ac/E8-12:Ac/Z8-14:Ac 500/20/25 μg (100:4:5)
[15] = pear orchard, Z8-12:Ac/E8-12:Ac/Z8-14:Ac 500/20/50 μg (100:4:10)
[16] = pear orchard, Z8-12:Ac/E8-12:Ac/Z8-14:Ac 500/20/75 μg (100:4:15)
[17] = pear orchard, Z8-12:Ac/E8-12:Ac/Z8-14:Ac 500/20/100 μg (100:4:20)
[18] = pear orchard, Z8-12:Ac/E8-12:Ac/Z8-14:Ac 500/20/125 μg (100:4:25)
[19] = pear orchard, Z8-12:Ac/E8-12:Ac/Z8-14:Ac 500/20/150 μg (100:4:30)

Sequence of GmolPBP2 mutant L68A (A0A059VC28 entry or part of it L93A): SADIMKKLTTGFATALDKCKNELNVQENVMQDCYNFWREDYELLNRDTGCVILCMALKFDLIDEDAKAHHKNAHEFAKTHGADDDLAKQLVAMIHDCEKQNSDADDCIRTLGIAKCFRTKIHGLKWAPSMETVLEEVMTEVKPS
Sequence of GmolPBP2 mutant I113A (A0A059VC28 entry or part of it I138A): as the sequence (A0A059VC28 entry or part of it L93A) above, with A68L, I113A counted along it
Sequence of GmolPBP2 mutant R109A (A0A059VC28 entry or part of it R134A): as the sequence (A0A059VC28 entry or part of it L93A) above, with A68L, R109A counted along it

CCCCC/C=C\CCCCCCCOC(C)=O [Z8-14:Ac, (Z)-8-tetradecenyl acetate]
IC50 (GmolPBP2 mutant I113A): 980 ± 38 nM | Ki (GmolPBP2 mutant I113A): 520 ± 20 nM | binding affinity relative to wild-type GmolPBP2 (GmolPBP2 mutant I113A; mutant I113A): binding affinities comparable to the wild-type | IC50 (GmolPBP2 mutant R109A): 1260 ± 29 nM | Ki (GmolPBP2 mutant R109A): 655 ± 15 nM | binding affinity relative to wild-type GmolPBP2 (GmolPBP2 mutant R109A; mutant R109A): did not significantly affect the binding affinity | IC50 (GmolPBP2 mutant L68A): 1130 ± 26 nM | Ki (GmolPBP2 mutant L68A): 589 ± 7 nM | binding affinity relative to wild-type GmolPBP2 (GmolPBP2 mutant L68A; mutant L68A): binding affinities comparable to the wild-type | Total PFM Males/Trap (PFM males [1]; [3]): 387.73 ± 18.31 a Males/Trap | Total PFM Males/Trap (PFM males [1]; [4]): 287.22 ± 7.96 a Males/Trap | Total PFM Males/Trap (PFM males [1]; [5]): 314.53 ± 26.14 a Males/Trap | Total PFM Males/Trap (PFM males [1]; [6]): 331.58 ± 17.46 a Males/Trap | Total PFM Males/Trap (PFM males [1]; [7]): 297.81 ± 4.75 a Males/Trap | Total PFM Males/Trap (PFM males [1]; [8]): 285.62 ± 6.55 a Males/Trap | Total PFM Males/Trap (PFM males [1]; [9]): 352.89 ± 32.42 a Males/Trap | Total PFM Males/Trap (PFM males [1]; [10]): 348.30 ± 22.77 a Males/Trap | effect on the number of PFM males (PFM males [1]; [11]): neither significantly increased nor inhibited | Total PFM Males/Trap (PFM males [2]; [3]): 64.07 ± 6.89 a Males/Trap | Total PFM Males/Trap (PFM males [2]; [4]): 45.47 ± 6.64 a Males/Trap | Total PFM Males/Trap (PFM males [2]; [5]): 43.06 ± 0.34 a Males/Trap | Total PFM Males/Trap (PFM males [2]; [6]): 53.73 ± 7.04 a Males/Trap | Total PFM Males/Trap (PFM males [2]; [7]): 48.57 ± 6.31 a Males/Trap | Total PFM Males/Trap (PFM males [2]; [8]): 42.36 ± 8.46 a Males/Trap | Total PFM Males/Trap (PFM males [2]; [9]): 57.52 ± 21.06 a Males/Trap | Total PFM Males/Trap (PFM males [2]; [10]): 72.67 ± 12.44 a Males/Trap | effect on the number of PFM males (PFM males [2]; [11]): neither significantly increased nor inhibited | maximum reduction of the capture of OFM males (OFM males; field trials, varying ratios of Z8-14:Ac (1% to 30%) added to Z8-12:Ac and E8-12:Ac): up to 96.54% | Total OFM Males/Trap (OFM males; [12]): 59.24 ± 10.14 b Males/Trap | Inhibition Rate of OFM Males (OFM males; [12]): 65.04% | Total OFM Males/Trap (OFM males; [13]): 61.31 ± 7.21 b Males/Trap | Inhibition Rate of OFM Males (OFM males; [13]): 63.82% | Total OFM Males/Trap (OFM males; [14]): 21.36 ± 6.22 c Males/Trap | Inhibition Rate of OFM Males (OFM males; [14]): 87.40% | Total OFM Males/Trap (OFM males; [15]): 12.05 ± 0.91 c Males/Trap | Inhibition Rate of OFM Males (OFM males; [15]): 92.89% | Total OFM Males/Trap (OFM males; [16]): 8.95 ± 2.69 c Males/Trap | Inhibition Rate of OFM Males (OFM males; [16]): 94.72% | Total OFM Males/Trap (OFM males; [17]): 12.74 ± 6.57 c Males/Trap | Inhibition Rate of OFM Males (OFM males; [17]): 92.48% | Total OFM Males/Trap (OFM males; [18]): 5.86 ± 1.50 c Males/Trap | Inhibition Rate of OFM Males (OFM males; [18]): 96.54% | Total OFM Males/Trap (OFM males; [19]): 10.33 ± 2.98 c Males/Trap | Inhibition Rate of OFM Males (OFM males; [19]): 93.90% | reduction of the number of OFM males caught (OFM males; pear orchard, adding 5–30% of Z8-14:Ac to Z8-12:Ac and E8-12:Ac): more than 86% | reduction of the capture of OFM males (OFM males; pear orchards, adding 1–2% of Z8-14:Ac to Z8-12:Ac and E8-12:Ac (100:4)): 63.82–65.04%
